Holding throughout (test): inhibition of tumour cell growth, NCI panel, 48 h
Assay [1] concerns OVCAR-4.
Assay [2] deals with SF-539.
Assay [3] has as its system SW-620.
Assay [4] has as its system KM12.
Assay [5] relates to CAKI-1.
Assay [6] concerns RPMI-8226.
Assay [7] deals with LOX IMVI.
Assay [8] relates to SK-MEL-2.
The test system of assay [9] is HOP-92.
In assay [10] the test system is HOP-62.
Assay [11] deals with M14.
Assay [12] concerns HT-29.
In assay [13] the test system is ACHN.
For assay [14], the system named is NCI-H226.
The subject of assay [15] is COLO 205.
Assay [16] has as its system NCI-H23.
Assay [17] concerns SF-268.
In assay [18] the test system is HCT-15.
Assay [19] relates to RXF 393.

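Growth conditions: 96-well plates. Treatment: test compound, 48 hours, 5 concentrations. Analysis: linear interpolation between bracketing concentrations; unreached endpoints set to highest concentration. GI50 marks 50% less growth.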 The source made the active and inactive calls. No stated cut-off is given here; in the data, active = GI50 up to about 1.1 µM and inactive = higher.

With `Cn1cnnc1Sc1c([N+](=O)[O-])ncn1C`, the GI50 was > 100 µM (inactive) in [1]; > 100 µM (inactive) in assay [2]; 72.4 µM (inactive) in assay [3]; > 100 µM (inactive) in assay [4]; > 100 µM (inactive) in assay [5]; 40.5 µM (inactive) in assay [6]. Besides, the GI50 is 35.2 µM (inactive) in assay [7]; 50.6 µM (inactive) in assay [8]; 26.5 µM (inactive) in assay [9]; > 100 µM (inactive) in [10]; > 100 µM (inactive) in assay [11]; > 100 µM (inactive) in assay [12]. The GI50 in assay [13] was > 100 µM (inactive); in [14], > 100 µM (inactive); in assay [15], 34.3 µM (inactive); in assay [16], 84.7 µM (inactive); in assay [17] it was > 100 µM (inactive).

For `O=S(=O)(c1ccccc1)C1CN2OC1(S(=O)(=O)c1ccccc1)CC21CCCCC1` (stereo not drawn), the GI50 in assay [1] was 37.1 µM (inactive); in [2] it was > 100 µM (inactive); in assay [3], > 100 µM (inactive); in [4], > 100 µM (inactive); in assay [5], 73.3 µM (inactive); in assay [6], 86.1 µM (inactive). For the same compound, the GI50 is > 100 µM in assay [18]; > 100 µM (inactive) in [7]; > 100 µM (inactive) in assay [8]; > 100 µM (inactive) in [10]; > 100 µM (inactive) in [11]; 77.1 µM (inactive) in [19]. The GI50 in assay [12], in [13], in assay [14], in [15], in assay [16] and in assay [17] was > 100 µM (inactive) in each case.

Regarding `NC(=O)c1cccc([N+](=O)[O-])c1`, the GI50 in [2] is > 100 µM (inactive); in assay [3], > 100 µM (inactive); in assay [4], > 100 µM (inactive); in [5] it was > 100 µM (inactive); in [6] it was > 100 µM (inactive); in [18] it was > 100 µM. Also, the GI50 in [7], in assay [8], in [10], in assay [11], in assay [12] and in [14] was > 100 µM (inactive) throughout. Further, the GI50 in [15], in [16] and in [17] was > 100 µM (inactive) each time.

As to `N#CC(C(=O)/C(=N/NC(=O)c1ccccc1O)C(C#N)c1ccc(Cl)cc1)c1ccc(Cl)cc1` (stereo not drawn), the GI50 in [1] is 18.1 µM (inactive); in assay [2], 17.3 µM (inactive); in assay [3], 15.2 µM (inactive); in [4], 15.8 µM (inactive); in assay [6], 15.8 µM (inactive); in assay [18], 15.3 µM. The GI50 is 14.3 µM (inactive) in [7]; 16.5 µM (inactive) in assay [8]; 20.7 µM (inactive) in [10]; 19.2 µM (inactive) in assay [11]; 4.05 µM (inactive) in [19]; 12.1 µM (inactive) in assay [12]. Also, the GI50 in [13] is 16 µM (inactive); in assay [14], 16.9 µM (inactive); in [15], 29.9 µM (inactive); in [16] it was 11.5 µM (inactive); in [17] it was 16.6 µM (inactive).

For the compound `COc1ccc(/C=C/C(=O)c2sc(-n3nc(-c4ccccc4)cc3-c3ccccc3)nc2C)cc1OC`, the GI50 in [1] was 38.5 µM (inactive); in [2] it was 26.7 µM (inactive); in assay [3] it was 43.8 µM (inactive); in [4], 28.1 µM (inactive); in assay [5] it was 54.2 µM (inactive); in [6], 22.1 µM (inactive). Moreover, the GI50 was 32.4 µM in [18]; 28.9 µM (inactive) in assay [7]; 62.1 µM (inactive) in assay [8]; 57.1 µM (inactive) in assay [10]; 62.8 µM (inactive) in assay [11]; 57.1 µM (inactive) in assay [19]. Also, the GI50 is 30.1 µM (inactive) in assay [12]; 49.8 µM (inactive) in assay [13]; 31.6 µM (inactive) in assay [14]; 36.6 µM (inactive) in assay [15]; 34.9 µM (inactive) in assay [16]; 27.4 µM (inactive) in assay [17].

In the case of `COc1ccc2c(c1)CCC(OS(=O)(=O)CC13CCC(CC1=O)C3(C)C)C2=O` (stereo not drawn), the GI50 in assay [1] is 43.1 µM (inactive); in assay [2], 21.5 µM (inactive); in [3], 26.4 µM (inactive); in assay [4], 19.5 µM (inactive); in assay [5], 40.6 µM (inactive); in assay [6], 19.7 µM (inactive). Also, the GI50 was 26.7 µM in assay [18]; 15.6 µM (inactive) in assay [7]; 23.9 µM (inactive) in assay [8]; 31.8 µM (inactive) in assay [9]; 29.2 µM (inactive) in [10]; 29.5 µM (inactive) in assay [11]. Moreover, the GI50 is 35.8 µM (inactive) in [13]; 29 µM (inactive) in assay [14]; 33.7 µM (inactive) in assay [15]; 17.3 µM (inactive) in [16]; 22.1 µM (inactive) in [17].

With `C/C1=N\[N-]C(=O)c2ccccc2C(=O)N/N=C(\C)c2cccc1n2.O=[N+]([O-])[O-].[Zn+2]`, the GI50 in assay [1], in assay [2], in [3], in assay [4], in assay [5] and in assay [6] was > 100 µM (inactive) throughout. In addition, the GI50 in assay [18] was > 100 µM; in assay [8], > 100 µM (inactive); in assay [10], > 100 µM (inactive); in assay [11], > 100 µM (inactive); in assay [12], > 100 µM (inactive); in assay [13], > 100 µM (inactive). For the same compound, the GI50 in assay [15], in assay [16] and in assay [17] was > 100 µM (inactive) each time.

For the compound `O=C1OC(c2ccc(Cl)c3ccccc23)c2ccccc21` (stereo not drawn), the GI50 in assay [1] is 63.5 µM (inactive); in assay [2], > 100 µM (inactive); in [4] it was > 100 µM (inactive); in assay [5] it was 75.5 µM (inactive); in assay [6], > 100 µM (inactive); in assay [18], 90.4 µM. Moreover, the GI50 in assay [8] was > 100 µM (inactive); in [9], > 100 µM (inactive); in assay [10] it was > 100 µM (inactive); in [11], > 100 µM (inactive); in [19], 26.1 µM (inactive); in assay [12], 55.3 µM (inactive). In addition, the GI50 in assay [13], in assay [15], in [16] and in assay [17] was > 100 µM (inactive) each time.

`COc1cc(/C=C(\C#N)C(=O)c2ccccc2)ccc1O`: the GI50 in [1], in assay [2], in assay [3], in assay [4], in assay [5] and in assay [6] was > 100 µM (inactive) each time. The GI50 in assay [18] was > 100 µM; in [7], > 100 µM (inactive); in [8] it was > 100 µM (inactive); in [10] it was > 100 µM (inactive); in assay [11], > 100 µM (inactive); in assay [12], > 100 µM (inactive). Also, the GI50 in [13], in assay [14], in assay [15], in assay [16] and in assay [17] was > 100 µM (inactive) throughout.

On to `N#CCCN(CCC#N)c1ccc(/C=C(/NC(=O)c2cc([N+](=O)[O-])ccc2Cl)C(=O)N=[N+]=[N-])cc1`, for which the GI50 in assay [1], in assay [2], in assay [3], in assay [4], in assay [5] and in [6] was > 100 µM (inactive) each time. In addition, the GI50 was > 100 µM in [18]; > 100 µM (inactive) in assay [7]; > 100 µM (inactive) in assay [8]; > 100 µM (inactive) in assay [10]; > 100 µM (inactive) in assay [11]; > 100 µM (inactive) in assay [19]. Further, the GI50 in assay [12], in [13], in assay [14], in assay [15], in [16] and in assay [17] was > 100 µM (inactive) in each case.

For `COC(=O)C1CC/C(=N/C2c3ccccc3-c3ccccc32)N1` (stereo not drawn), the GI50 in [1] was > 100 µM (inactive); in assay [3] it was > 100 µM (inactive); in assay [4], > 100 µM (inactive); in [5], > 100 µM (inactive); in assay [6], 61.5 µM (inactive); in assay [18], > 100 µM. Further, the GI50 is > 10 µM (inactive) in assay [7]; > 100 µM (inactive) in assay [8]; 14.1 µM (inactive) in [9]; > 100 µM (inactive) in assay [10]; > 100 µM (inactive) in assay [11]; > 100 µM (inactive) in [12]. The GI50 in assay [13] is > 100 µM (inactive); in assay [14] it was > 100 µM (inactive); in assay [15], 47.8 µM (inactive); in [16] it was > 100 µM (inactive); in assay [17] it was > 100 µM (inactive).

Take `CC(C)(C)C1CCC(CI)(N=[N+]=[N-])CC1` (stereo not drawn): the GI50 in assay [1] is > 100 µM (inactive); in assay [2], > 100 µM (inactive); in [3], > 100 µM (inactive); in [4] it was > 100 µM (inactive); in assay [5], > 100 µM (inactive); in assay [6], 79.1 µM (inactive). Besides, the GI50 in assay [18] was > 100 µM; in [8], 61.1 µM (inactive); in assay [9] it was > 100 µM (inactive); in assay [10], > 100 µM (inactive); in assay [11], > 100 µM (inactive); in [19] it was > 100 µM (inactive). Further, the GI50 in [12], in assay [13], in [14], in assay [15], in [16] and in assay [17] was > 100 µM (inactive) throughout.

The values above are taken from ChEMBL document CHEMBL1201862, “PubChem BioAssay data set” (2004).
